5 compounds from patent publication US20250101004A1, “NOVEL KALIRIN INHIBITORS FOR REGULATION OF SYNAPTIC PLASTICITY AND NEUROPATHIC PAIN TREATMENT” (Northwestern University, priority 2022, published 2025) can be followed below.

One series deals with T1, kalirin (Homo sapiens, UniProt O60229).
T1 construct: intrinsic activity of RAC1 in the absence of kalirin's GEF domain (No GEF)
Briefly: Miniaturized high-throughput GEF assay with bodipy-GDP loaded RAC1. It is filed as biochemical. As to the method:
FIG. 11 illustrates that reaction rates from FIG. 10 were assessed and plotted against concentration.
This was assessed using a miniaturized high-throughput GEF assay, utilizing fluorescently labelled GDP (bodipy-GDP) loaded RAC1.

The next series has as its system HEK293T cells. The note with it: 24 hours, Cell-titre Glo. As to the method: Cell viability was assessed by cell-titre glo assay. […] Indicated values indicate the required concentration to reduce viability by 50%.
Compound was incubated with heterologous cells (HEK293T) for 24 hours, and cell death was measured using the Cell-titre Glo assay.

Series [1] addresses T2, kalirin GEF domain (Homo sapiens, UniProt O60229). Nature of the series: Fluorescence thermal shift (FTS) binding to kalirin GEF domain.
Series [2] deals with primary cultured rat neurons. Briefly: Multi-electrode array (MEA) analysis of electrical activity of primary cultured neurons. It is filed as cell-based. As to the method:
FIG. 16A-16F show multi-electrode array analyses of the electrical activity of primary cultured neurons was assessed in the presence of compound B04, alongside the known RAC1 inhibitor NSC23776. […] Dose response analysis confirmed activity of B04 (123 μM, FIG. 16D and FIG. +16F). However, NSC23766 (FIG. 16C and FIG. 16E) had 10× efficacy (7.4 μM) compared to previous results.
Indicated PP01 analogues were incubated with rat primary cultured cortical neurons at 50 μM to assess the ability to recapitulate PP01s ability to inhibit neuronal activity.
48 well multi-electrode arrays (MEAs) were seeded with 50,000 primary cultured rat neurons and grown to 3WIV. Cells were incubated with NSC23766 or B04 at 50 and 100 μM for 4 hours alongside vehicle control (1% DMSO, FIG. 16A-16B). Neuronal activity was assessed in terms of weighted mean firing rate (number of events per second across active electrodes) and burst frequency (>5 events in 100 ms within a single electrode) and network burst frequency (FIG. 16A-16D).
DRC curve analyses of NS23766 (FIGS. 16C and 16E) and B04 (FIGS. 16D and 16F) was performed to assess compound efficacy. […] This is likely due to reported off-target inhibition of NMDAr (Hou et al 2014).
Plate was treated with vehicle control or B04 for 4 hours. The % change from baseline was recorded. […] Drug resistance from overexpression is a known phenomenon, supporting target engagement (Palmer et al, 2014).

In series [3] the target is T2, kalirin GEF domain. Nature of the series: Cellular GEF assay (RAC-Glisa) in cells transfected with kalirin-GEF domain. It is filed as cell-based. More on the design: Cells were transfected with the kalirin-GEF domain; expressed in transfected cells; host or cells: HEK293T (inferred from the same paragraph's toxicity test; the sentence on transfection says only 'Cells'). An excerpt:
Known compound, NSC23766 (FIGS. 14A and 14C), was run alongside B04 (FIGS. 14B and 14D) to confirm GEF inhibition (IC50 of NSC23766 matches published results).

Each structure is given as a SMILES string. Where two headings read alike, the source gives them in different places.

Take `Cc1cc2cc(Nc3ccnc(Nc4ccc5[nH]c(C)cc5c4)n3)ccc2[nH]1` [AZA1]: the “inhibition of kalirin biochemical GEF activity” value on kalirin is recorded as “inhibited GEF activity”. The “cellular toxicity / tolerability” value with HEK293T cells is “Only NSC23766 and B04 were well tolerated”. For the same compound, the “binding to kalirin by FTS (thermodynamic stability of kalirin GEF domain)” value (from here on “binding to kalirin by FTS”) on kalirin GEF domain [1] is recorded as “not bind to kalirin”.

In the case of `O=C1C=C2C(=CCOC2O)O1` (stereo not shown) [patulin], the “inhibition of kalirin biochemical GEF activity” value against kalirin was “inhibited GEF activity”. Moreover, the “binding to kalirin by FTS” value at kalirin GEF domain [1] is “bond to kalirin”.

With `O=C1C=CC(=O)N1c1cccc([N+](=O)[O-])c1` [NPPD], the “inhibition of kalirin biochemical GEF activity” value against kalirin was “inhibited GEF activity”. Besides, the “cellular toxicity / tolerability” value with HEK293T cells was “Only NSC23766 and B04 were well tolerated”. Also, the “binding to kalirin by FTS” value on kalirin GEF domain [1] is reported as “not bind to kalirin”.

Consider `CCN(CC)CCCC(C)Nc1nc(C)cc(Nc2ccc3nc(C)cc(N)c3c2)n1` (stereo not shown) [NSC23766], for which, on kalirin, the “inhibition of kalirin biochemical GEF activity” value was “inhibited GEF activity”. Besides, in series [2] (4 hours, 50 and 100 μM), the burst frequency result is on record as “reduced” and the “firing rate (weighted mean firing rate)” value is recorded as “reduced”. Also, the “inhibitory efficacy in neurons compared to published reports and cellular activity” value in series [2] (fold greater) worked out at 10 ×. The IC50 in series [2] (primary cultured neurons, 4 hours treatment, FIG. 16C-16F, read-out: dose response activity on neuronal electrical activity) amounted to 7.4 µM. The “inhibition of kalirin activity (RAC1 activation)” value at kalirin GEF domain [3] is “inhibit kalirin activity”. For the same compound, the “cellular toxicity / tolerability” value with HEK293T cells was “well tolerated”. The “binding to kalirin by FTS” value on kalirin GEF domain [1] is “not bind to kalirin”.

As for `CC(C)c1cn2c(NC(=O)Cc3c[nH]c4ccccc34)cccc2n1` [NW12, 2-(1H-indol-3-yl)-N-[2-(propan-2-yl)-1H-imidazo[1,2-a]pyridine-5-yl]acetamide], the IC50 in series [2] (PP01 analogues, FIG. 31A-31C, read-out: IC50, inhibition of neuronal activity) was < 5 µM. The “inhibition of neuronal activity” value in series [2] (rat primary cultured cortical neurons, 50 μM, 4 and 24 hours) is on record as “inhibited activity robustly”. Moreover, the “cellular toxicity / tolerability” value in the series with HEK293T cells was “suitable for in vitro cellular studies”.
